In ChEMBL document CHEMBL1145498, “A systematic interaction map of validated kinase inhibitors with Ser/Thr kinases” (Proc Natl Acad Sci U S A, 2007):
Activity calls are given as the source filed them. The rule behind the calls is not given here.

target: Calcium/calmodulin-dependent protein kinase type II subunit beta (Homo sapiens) (UniProt Q13554)

Row | Compound | ΔTm [°C]
1 | CCOC(=O)c1cnc2oc3ccc(O)cc3c2c1-c1ccccc1 | 0.4

target: Calcium/calmodulin-dependent protein kinase type II subunit gamma (Homo sapiens) (UniProt Q13555)
Sequence (Q13555 whole entry): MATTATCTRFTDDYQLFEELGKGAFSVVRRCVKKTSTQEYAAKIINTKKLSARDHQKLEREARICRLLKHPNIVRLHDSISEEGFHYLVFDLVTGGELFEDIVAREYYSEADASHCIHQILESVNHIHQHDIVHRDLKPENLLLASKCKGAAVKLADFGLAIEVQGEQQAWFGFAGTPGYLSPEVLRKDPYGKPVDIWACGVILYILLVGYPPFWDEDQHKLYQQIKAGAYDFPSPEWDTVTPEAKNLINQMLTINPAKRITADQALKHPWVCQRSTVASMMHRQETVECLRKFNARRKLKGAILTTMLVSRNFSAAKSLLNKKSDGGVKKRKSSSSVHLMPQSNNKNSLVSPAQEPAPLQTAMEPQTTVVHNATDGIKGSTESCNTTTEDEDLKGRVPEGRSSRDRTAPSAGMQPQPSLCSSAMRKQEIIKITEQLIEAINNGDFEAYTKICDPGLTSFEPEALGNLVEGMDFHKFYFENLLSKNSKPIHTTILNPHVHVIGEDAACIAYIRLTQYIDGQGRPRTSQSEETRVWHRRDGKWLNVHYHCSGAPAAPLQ

Row | Compound | ΔTm [°C]
2 | COc1ccc2c(c1)/C(=C/c1cnc[nH]1)C(=O)N2 [SU-9516] | 1
3 | Cc1nc(N)sc1-c1ccnc(Nc2cccc([N+](=O)[O-])c2)n1 | 1
4 | CCOC(=O)c1cnc2oc3ccc(O)cc3c2c1-c1ccccc1 | 0.5

target: Serine/threonine-protein kinase OSR1 (Homo sapiens) (UniProt O95747)

Row | Compound | ΔTm [°C]
5 | COc1ccc2c(c1)/C(=C/c1cnc[nH]1)C(=O)N2 [SU-9516] | 1.3
6 | Cc1nc(N)sc1-c1ccnc(Nc2cccc([N+](=O)[O-])c2)n1 | 1.2
7 | CCOC(=O)c1cnc2oc3ccc(O)cc3c2c1-c1ccccc1 | 1.3

target: T1, Dual specificity mitogen-activated protein kinase kinase 6 (Homo sapiens) (UniProt P52564)
T1 sequence (whole entry): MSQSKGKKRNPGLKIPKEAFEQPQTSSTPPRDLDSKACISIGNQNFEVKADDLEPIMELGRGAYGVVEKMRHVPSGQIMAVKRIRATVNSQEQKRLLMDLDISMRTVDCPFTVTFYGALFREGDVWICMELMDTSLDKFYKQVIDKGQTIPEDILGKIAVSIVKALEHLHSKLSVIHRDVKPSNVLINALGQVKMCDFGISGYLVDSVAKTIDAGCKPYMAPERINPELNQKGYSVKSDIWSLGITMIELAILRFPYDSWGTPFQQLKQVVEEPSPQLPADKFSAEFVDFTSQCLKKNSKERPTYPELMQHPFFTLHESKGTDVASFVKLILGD

Row | Compound | ΔTm [°C]
8 | COc1ccc2c(c1)/C(=C/c1cnc[nH]1)C(=O)N2 [SU-9516] | 5.1
9 | Cc1nc(N)sc1-c1ccnc(Nc2cccc([N+](=O)[O-])c2)n1 | 1.2
10 | CCOC(=O)c1cnc2oc3ccc(O)cc3c2c1-c1ccccc1 | 1.9

tested on: not listed separately; assay: Inhibition of Cdk4/cyclin D1

Row | Compound | IC50 [nM] | Ki [nM] | Activity
11 | COc1ccc2c(c1)/C(=C/c1cnc[nH]1)C(=O)N2 [SU-9516] | 200 | – | –
12 | Cc1nc(N)sc1-c1ccnc(Nc2cccc([N+](=O)[O-])c2)n1 | – | 53 | –
13 | CCOC(=O)c1cnc2oc3ccc(O)cc3c2c1-c1ccccc1 | – | – | Active

target: Calcium/calmodulin-dependent protein kinase type II subunit alpha (Homo sapiens) (UniProt Q9UQM7)
Sequence (Q9UQM7 whole entry): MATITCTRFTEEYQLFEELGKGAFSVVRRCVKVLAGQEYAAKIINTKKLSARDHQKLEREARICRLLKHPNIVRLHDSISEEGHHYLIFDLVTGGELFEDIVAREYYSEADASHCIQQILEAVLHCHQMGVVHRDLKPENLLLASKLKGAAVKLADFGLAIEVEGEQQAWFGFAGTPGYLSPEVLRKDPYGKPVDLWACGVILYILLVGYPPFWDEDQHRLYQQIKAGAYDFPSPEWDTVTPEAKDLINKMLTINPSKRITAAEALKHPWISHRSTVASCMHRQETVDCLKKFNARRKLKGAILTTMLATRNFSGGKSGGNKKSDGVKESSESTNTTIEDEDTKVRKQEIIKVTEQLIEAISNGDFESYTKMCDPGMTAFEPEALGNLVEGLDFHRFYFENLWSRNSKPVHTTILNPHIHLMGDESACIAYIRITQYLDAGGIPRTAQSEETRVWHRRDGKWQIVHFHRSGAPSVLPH

Row | Compound | ΔTm [°C]
14 | COc1ccc2c(c1)/C(=C/c1cnc[nH]1)C(=O)N2 [SU-9516] | 1
15 | Cc1nc(N)sc1-c1ccnc(Nc2cccc([N+](=O)[O-])c2)n1 | 1.4
16 | CCOC(=O)c1cnc2oc3ccc(O)cc3c2c1-c1ccccc1 | 0.7

target: Mitogen-activated protein kinase 6 (Homo sapiens) (UniProt Q16659)
Sequence (Q16659 whole entry): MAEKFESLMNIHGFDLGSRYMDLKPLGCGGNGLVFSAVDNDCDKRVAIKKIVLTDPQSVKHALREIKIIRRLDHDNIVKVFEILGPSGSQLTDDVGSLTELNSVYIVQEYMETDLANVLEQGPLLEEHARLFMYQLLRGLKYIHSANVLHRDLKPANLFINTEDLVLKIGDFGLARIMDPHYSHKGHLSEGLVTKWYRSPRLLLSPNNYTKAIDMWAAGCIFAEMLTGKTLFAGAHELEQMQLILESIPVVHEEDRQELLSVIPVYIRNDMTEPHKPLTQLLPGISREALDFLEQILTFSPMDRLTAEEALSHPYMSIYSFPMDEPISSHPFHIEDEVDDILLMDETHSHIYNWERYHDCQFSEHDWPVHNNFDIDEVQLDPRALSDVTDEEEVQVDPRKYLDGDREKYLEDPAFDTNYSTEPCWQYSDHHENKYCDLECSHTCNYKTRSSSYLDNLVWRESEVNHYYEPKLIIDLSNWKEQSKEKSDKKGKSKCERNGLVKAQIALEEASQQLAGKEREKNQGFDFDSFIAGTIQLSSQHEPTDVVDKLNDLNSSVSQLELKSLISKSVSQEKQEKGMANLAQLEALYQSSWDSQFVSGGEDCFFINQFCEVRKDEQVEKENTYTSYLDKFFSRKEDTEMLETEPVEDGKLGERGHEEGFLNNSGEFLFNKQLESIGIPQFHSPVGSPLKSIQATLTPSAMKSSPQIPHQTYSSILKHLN

Row | Compound | ΔTm [°C]
17 | COc1ccc2c(c1)/C(=C/c1cnc[nH]1)C(=O)N2 [SU-9516] | 0.2
18 | Cc1nc(N)sc1-c1ccnc(Nc2cccc([N+](=O)[O-])c2)n1 | 2.1
19 | CCOC(=O)c1cnc2oc3ccc(O)cc3c2c1-c1ccccc1 | 0.2

target: TRAF2 and NCK-interacting protein kinase (Homo sapiens) (UniProt Q9UKE5)
Sequence (Q9UKE5 whole entry, looked up): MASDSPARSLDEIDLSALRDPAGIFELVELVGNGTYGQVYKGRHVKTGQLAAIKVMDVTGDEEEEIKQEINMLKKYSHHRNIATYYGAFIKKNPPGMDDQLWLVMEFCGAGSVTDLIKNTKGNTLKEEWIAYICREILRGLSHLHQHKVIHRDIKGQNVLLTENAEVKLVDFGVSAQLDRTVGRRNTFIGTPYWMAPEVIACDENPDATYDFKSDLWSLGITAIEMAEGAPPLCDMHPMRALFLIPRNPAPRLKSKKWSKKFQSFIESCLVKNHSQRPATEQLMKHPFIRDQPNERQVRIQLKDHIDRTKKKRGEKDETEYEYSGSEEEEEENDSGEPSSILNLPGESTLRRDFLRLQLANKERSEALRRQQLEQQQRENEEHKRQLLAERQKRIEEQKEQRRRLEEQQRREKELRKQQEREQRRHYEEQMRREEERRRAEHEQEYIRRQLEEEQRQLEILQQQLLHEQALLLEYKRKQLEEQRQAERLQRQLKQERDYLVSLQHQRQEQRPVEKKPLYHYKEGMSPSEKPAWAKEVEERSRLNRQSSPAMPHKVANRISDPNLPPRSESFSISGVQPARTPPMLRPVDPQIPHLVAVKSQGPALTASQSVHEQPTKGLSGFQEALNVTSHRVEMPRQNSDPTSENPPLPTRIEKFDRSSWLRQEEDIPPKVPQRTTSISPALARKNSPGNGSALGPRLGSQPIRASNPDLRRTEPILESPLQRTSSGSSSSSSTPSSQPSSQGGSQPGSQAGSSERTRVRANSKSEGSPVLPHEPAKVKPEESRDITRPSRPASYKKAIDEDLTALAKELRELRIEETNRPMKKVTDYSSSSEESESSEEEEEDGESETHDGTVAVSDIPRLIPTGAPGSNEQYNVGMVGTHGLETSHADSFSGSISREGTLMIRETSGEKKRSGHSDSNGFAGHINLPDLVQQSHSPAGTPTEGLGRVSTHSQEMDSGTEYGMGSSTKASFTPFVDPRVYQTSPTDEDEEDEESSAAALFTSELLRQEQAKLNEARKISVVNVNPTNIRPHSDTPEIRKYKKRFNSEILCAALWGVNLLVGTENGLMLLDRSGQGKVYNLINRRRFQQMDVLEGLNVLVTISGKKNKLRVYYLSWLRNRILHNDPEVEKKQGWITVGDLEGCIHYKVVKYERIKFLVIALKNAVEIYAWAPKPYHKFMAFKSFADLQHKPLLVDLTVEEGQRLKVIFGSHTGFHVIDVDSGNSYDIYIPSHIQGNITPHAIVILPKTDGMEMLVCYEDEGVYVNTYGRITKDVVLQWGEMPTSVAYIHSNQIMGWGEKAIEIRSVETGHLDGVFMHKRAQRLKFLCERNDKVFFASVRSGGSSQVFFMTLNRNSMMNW

Row | Compound | ΔTm [°C]
20 | COc1ccc2c(c1)/C(=C/c1cnc[nH]1)C(=O)N2 [SU-9516] | 5.7
21 | Cc1nc(N)sc1-c1ccnc(Nc2cccc([N+](=O)[O-])c2)n1 | 0.9
22 | CCOC(=O)c1cnc2oc3ccc(O)cc3c2c1-c1ccccc1 | 1.3

target: Dual specificity protein kinase CLK3 (Homo sapiens) (UniProt P49761)

Row | Compound | ΔTm [°C]
23 | COc1ccc2c(c1)/C(=C/c1cnc[nH]1)C(=O)N2 [SU-9516] | 1.3
24 | Cc1nc(N)sc1-c1ccnc(Nc2cccc([N+](=O)[O-])c2)n1 | 4
25 | CCOC(=O)c1cnc2oc3ccc(O)cc3c2c1-c1ccccc1 | 1

target: Death-associated protein kinase 3 (Homo sapiens) (UniProt O43293)
Sequence (O43293 whole entry, looked up): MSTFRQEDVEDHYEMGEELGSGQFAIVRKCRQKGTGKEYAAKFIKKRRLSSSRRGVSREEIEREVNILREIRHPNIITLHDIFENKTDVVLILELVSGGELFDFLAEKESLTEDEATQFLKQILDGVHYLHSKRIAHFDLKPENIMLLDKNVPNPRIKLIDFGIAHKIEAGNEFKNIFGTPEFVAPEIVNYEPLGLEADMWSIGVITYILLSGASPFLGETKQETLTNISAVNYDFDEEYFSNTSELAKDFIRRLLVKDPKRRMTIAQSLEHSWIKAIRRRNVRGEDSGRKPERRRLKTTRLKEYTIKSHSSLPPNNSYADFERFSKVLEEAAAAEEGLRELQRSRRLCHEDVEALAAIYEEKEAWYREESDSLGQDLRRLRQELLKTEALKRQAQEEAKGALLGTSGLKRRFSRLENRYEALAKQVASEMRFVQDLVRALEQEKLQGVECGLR

Row | Compound | ΔTm [°C]
26 | COc1ccc2c(c1)/C(=C/c1cnc[nH]1)C(=O)N2 [SU-9516] | 2.7
27 | Cc1nc(N)sc1-c1ccnc(Nc2cccc([N+](=O)[O-])c2)n1 | 8.7
28 | CCOC(=O)c1cnc2oc3ccc(O)cc3c2c1-c1ccccc1 | 0.8

target: Calcium/calmodulin-dependent protein kinase type II subunit delta (Homo sapiens) (UniProt Q13557)

Row | Compound | ΔTm [°C]
29 | COc1ccc2c(c1)/C(=C/c1cnc[nH]1)C(=O)N2 [SU-9516] | -0.5
30 | Cc1nc(N)sc1-c1ccnc(Nc2cccc([N+](=O)[O-])c2)n1 | -0.4
31 | CCOC(=O)c1cnc2oc3ccc(O)cc3c2c1-c1ccccc1 | -0.1

target: Serine/threonine-protein kinase PLK1 (Homo sapiens) (UniProt P53350)
Sequence (P53350 whole entry): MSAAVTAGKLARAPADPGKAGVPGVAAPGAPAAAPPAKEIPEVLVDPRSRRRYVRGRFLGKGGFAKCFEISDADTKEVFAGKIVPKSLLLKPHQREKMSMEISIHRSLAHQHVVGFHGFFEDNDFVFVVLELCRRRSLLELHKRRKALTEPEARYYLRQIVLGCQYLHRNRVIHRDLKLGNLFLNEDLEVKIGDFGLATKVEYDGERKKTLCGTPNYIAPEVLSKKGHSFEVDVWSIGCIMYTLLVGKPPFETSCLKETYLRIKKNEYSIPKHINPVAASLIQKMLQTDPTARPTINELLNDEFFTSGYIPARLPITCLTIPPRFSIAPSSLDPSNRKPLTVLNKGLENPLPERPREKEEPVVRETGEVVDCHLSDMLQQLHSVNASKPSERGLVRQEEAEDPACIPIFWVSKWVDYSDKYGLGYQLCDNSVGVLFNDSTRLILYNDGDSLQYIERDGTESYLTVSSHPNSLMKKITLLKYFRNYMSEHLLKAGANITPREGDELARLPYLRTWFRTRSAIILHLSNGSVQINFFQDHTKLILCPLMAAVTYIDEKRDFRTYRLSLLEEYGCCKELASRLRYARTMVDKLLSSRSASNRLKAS

Row | Compound | ΔTm [°C]
32 | COc1ccc2c(c1)/C(=C/c1cnc[nH]1)C(=O)N2 [SU-9516] | 0.7
33 | Cc1nc(N)sc1-c1ccnc(Nc2cccc([N+](=O)[O-])c2)n1 | 4.6
34 | CCOC(=O)c1cnc2oc3ccc(O)cc3c2c1-c1ccccc1 | 0.8

target: Dual specificity mitogen-activated protein kinase kinase 2 (Homo sapiens, UniProt P36507)
Sequence (P36507 whole entry): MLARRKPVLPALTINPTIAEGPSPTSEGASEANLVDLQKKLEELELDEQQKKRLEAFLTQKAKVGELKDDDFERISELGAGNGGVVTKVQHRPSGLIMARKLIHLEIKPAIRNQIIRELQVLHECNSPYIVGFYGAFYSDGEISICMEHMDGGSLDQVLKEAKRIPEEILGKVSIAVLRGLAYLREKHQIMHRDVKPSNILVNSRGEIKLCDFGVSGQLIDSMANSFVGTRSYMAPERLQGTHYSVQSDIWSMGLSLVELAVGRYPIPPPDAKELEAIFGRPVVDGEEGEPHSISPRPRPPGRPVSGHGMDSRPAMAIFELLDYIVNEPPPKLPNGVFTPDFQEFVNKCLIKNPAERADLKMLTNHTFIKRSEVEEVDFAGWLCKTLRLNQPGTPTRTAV

Row | Compound | ΔTm [°C]
35 | COc1ccc2c(c1)/C(=C/c1cnc[nH]1)C(=O)N2 [SU-9516] | 1.7
36 | Cc1nc(N)sc1-c1ccnc(Nc2cccc([N+](=O)[O-])c2)n1 | 2.7
37 | CCOC(=O)c1cnc2oc3ccc(O)cc3c2c1-c1ccccc1 | 0.5

target: T2, Serine/threonine-protein kinase VRK1 (Homo sapiens) (UniProt Q99986)
T2 sequence (whole entry): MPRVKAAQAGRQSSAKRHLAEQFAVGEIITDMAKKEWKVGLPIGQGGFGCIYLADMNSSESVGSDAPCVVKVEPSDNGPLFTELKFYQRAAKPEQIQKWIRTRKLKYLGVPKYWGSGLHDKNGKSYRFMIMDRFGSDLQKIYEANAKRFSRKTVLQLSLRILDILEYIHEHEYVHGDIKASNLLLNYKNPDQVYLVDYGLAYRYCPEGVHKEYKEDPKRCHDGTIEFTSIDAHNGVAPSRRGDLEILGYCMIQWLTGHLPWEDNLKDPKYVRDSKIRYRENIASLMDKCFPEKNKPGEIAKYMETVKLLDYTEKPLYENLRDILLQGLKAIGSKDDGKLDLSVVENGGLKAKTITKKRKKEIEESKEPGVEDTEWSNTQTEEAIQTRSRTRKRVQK

Row | Compound | ΔTm [°C]
38 | COc1ccc2c(c1)/C(=C/c1cnc[nH]1)C(=O)N2 [SU-9516] | 0.5
39 | CCOC(=O)c1cnc2oc3ccc(O)cc3c2c1-c1ccccc1 | 0.1

target: T3, Myotonin-protein kinase (Homo sapiens) (UniProt Q09013)
T3 sequence (whole entry): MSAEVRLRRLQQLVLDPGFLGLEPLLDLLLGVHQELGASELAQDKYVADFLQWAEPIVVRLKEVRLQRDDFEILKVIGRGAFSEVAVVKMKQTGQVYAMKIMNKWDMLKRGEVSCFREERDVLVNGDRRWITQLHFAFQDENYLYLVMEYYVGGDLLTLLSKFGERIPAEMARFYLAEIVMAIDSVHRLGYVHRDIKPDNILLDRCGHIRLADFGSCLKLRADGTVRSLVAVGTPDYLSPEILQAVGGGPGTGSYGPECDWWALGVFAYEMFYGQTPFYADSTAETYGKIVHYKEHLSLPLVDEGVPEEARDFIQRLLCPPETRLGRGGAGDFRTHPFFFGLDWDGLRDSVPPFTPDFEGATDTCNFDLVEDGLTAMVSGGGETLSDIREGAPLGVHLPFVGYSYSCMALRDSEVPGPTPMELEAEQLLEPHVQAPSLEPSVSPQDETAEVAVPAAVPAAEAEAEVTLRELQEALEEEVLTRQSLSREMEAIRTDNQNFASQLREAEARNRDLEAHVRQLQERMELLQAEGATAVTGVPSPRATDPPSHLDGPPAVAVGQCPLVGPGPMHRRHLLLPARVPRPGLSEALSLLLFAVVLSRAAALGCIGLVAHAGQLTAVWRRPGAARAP

Row | Compound | ΔTm [°C]
40 | COc1ccc2c(c1)/C(=C/c1cnc[nH]1)C(=O)N2 [SU-9516] | 0.8
41 | Cc1nc(N)sc1-c1ccnc(Nc2cccc([N+](=O)[O-])c2)n1 | 7.6
42 | CCOC(=O)c1cnc2oc3ccc(O)cc3c2c1-c1ccccc1 | -0.4

target: Casein kinase I isoform gamma-1 (Homo sapiens) (UniProt Q9HCP0)

Row | Compound | ΔTm [°C]
43 | COc1ccc2c(c1)/C(=C/c1cnc[nH]1)C(=O)N2 [SU-9516] | 1
44 | Cc1nc(N)sc1-c1ccnc(Nc2cccc([N+](=O)[O-])c2)n1 | 3.9
45 | CCOC(=O)c1cnc2oc3ccc(O)cc3c2c1-c1ccccc1 | 1.2

target: Calcium/calmodulin-dependent protein kinase type 1G (Homo sapiens) (UniProt Q96NX5)
Sequence (Q96NX5 whole entry): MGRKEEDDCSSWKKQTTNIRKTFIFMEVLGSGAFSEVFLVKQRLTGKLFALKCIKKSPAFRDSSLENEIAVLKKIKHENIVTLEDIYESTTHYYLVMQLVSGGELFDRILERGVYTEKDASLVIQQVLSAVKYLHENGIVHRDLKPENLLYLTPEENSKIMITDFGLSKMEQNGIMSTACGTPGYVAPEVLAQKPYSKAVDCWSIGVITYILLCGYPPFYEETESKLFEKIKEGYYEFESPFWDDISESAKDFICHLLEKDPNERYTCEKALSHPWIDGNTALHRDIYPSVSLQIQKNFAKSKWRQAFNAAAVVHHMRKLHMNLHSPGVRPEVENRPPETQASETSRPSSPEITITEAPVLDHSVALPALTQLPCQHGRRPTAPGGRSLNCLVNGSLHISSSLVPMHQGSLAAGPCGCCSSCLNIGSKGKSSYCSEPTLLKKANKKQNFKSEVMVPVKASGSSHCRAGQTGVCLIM

Row | Compound | ΔTm [°C]
46 | COc1ccc2c(c1)/C(=C/c1cnc[nH]1)C(=O)N2 [SU-9516] | 0.4
47 | Cc1nc(N)sc1-c1ccnc(Nc2cccc([N+](=O)[O-])c2)n1 | 4.1
48 | CCOC(=O)c1cnc2oc3ccc(O)cc3c2c1-c1ccccc1 | 0.1

target: Mitogen-activated protein kinase 3 (Homo sapiens, UniProt P27361)

Row | Compound | ΔTm [°C]
49 | COc1ccc2c(c1)/C(=C/c1cnc[nH]1)C(=O)N2 [SU-9516] | 2.6
50 | Cc1nc(N)sc1-c1ccnc(Nc2cccc([N+](=O)[O-])c2)n1 | 2.7
51 | CCOC(=O)c1cnc2oc3ccc(O)cc3c2c1-c1ccccc1 | -0.1

target: Dual specificity protein kinase CLK2 (Homo sapiens) (UniProt P49760)

Row | Compound | ΔTm [°C]
52 | COc1ccc2c(c1)/C(=C/c1cnc[nH]1)C(=O)N2 [SU-9516] | 3.2
53 | Cc1nc(N)sc1-c1ccnc(Nc2cccc([N+](=O)[O-])c2)n1 | 7.9
54 | CCOC(=O)c1cnc2oc3ccc(O)cc3c2c1-c1ccccc1 | 3.5
